Measurements from patent publication US5561126A, “4-oxa-1-azabicyclo [3,2,0] heptan-7-one derivatives as antitumor agents” (Taiho Pharmaceutical Co., Ltd., priority 1992, dated 1996).
Converted amounts (≈) assume the structure as drawn.

Assays:
[1] = system: Sarcoma 180; assay: In Vivo Antitumor Activity Against Sarcoma 180; details: for Mortality in 12 days: i.p., days 1, 5 and 9
Method: Sarcoma 180, 5×10^6 cells were inoculated by S.C. to male ICR mice (6 weeks old) on day 0. Drugs were administered on days 1, 5 and 9. Mice were killed and tumor weight was measured on day 12 after transplantation. The percentage inhibition of tumor growth was calculated from the mean tumor weight of the treated group compared with that of the control group. Number of mice used in each group was between 6 to 10.

[2] = system: KB cells; assay: In Vitro KB Cell Cytotoxicity Assay (crystal violet); type: cell-based; details: Homo sapiens, 72 h, read-out: Cytotoxicity TD50 KB
Method: KB cells were cultivated in Eagles minimum essential medium supplemented with 10% calf serum and incubated at 37° C. in a humidified 5% CO2 atmosphere to prepare a cell stock. Cells were counted using a neubauer hemocytometer and seeded in 96 well plates at 100 μl of 3×10^4 cells/ml and cultured for one day. […] Control wells were identical except that test compound was absent. These were cultured for three days. […] Then stained with 100 μl of 0.05% crystal violet for 15 minutes, washed with water and dried. The wells were eluted with 100 μl of 0.05M NaH2 PO4 /ethanol (1:1 v/v) and read at OD540 on a multiscan spectrophotometer. TD50 values were calculated using the following formula.

[3] = system: L1210 cells; assay: cells; type: cell-based; details: Mus musculus, L1210, 72 h, read-out: Cytotoxicity TD50 L1210
Method: In vitro L1210 cell cytotoxicity assay was done by the method of microculture tetrazolium assay (Alley et al., Cancer Research, 48, 589-601 (1988)). L1210 cells were cultivated in RPMI 1640 medium supplemented with 10% fetal calf serum and […] of 2-mercaptoethanol at 37° C. in humidified 5% CO2 atmosphere to prepare a cell stock. Cells were counted using neubauer hemocytometer and seed in 96 well plates at 100 μl of 0.5×10^4 cells per ml. The test compounds were diluted and 100 μl of the solution was added in triplicate wells to give the final concentration of 10, 5, 1, 0.5 and 0.1 μg/ml. Control wells were identical except that the test compound was absent. These were cultured for three days. Results were assayed using the microculture tetrazolium assay briefly. 50 μl of MTT formazoan working solution (1:5 v/v in culture medium) was added to each well and cultures were incubated at 37° C. for 4 hrs. Culture plates were centrifuged at low speed for 5 minutes. All but 10-20 μl of culture medium supernatant was removed by slow aspiration and replaced by 50 μl of DMSO. The formazoan was dissolved by shaking on a mechanical shaker and read at OD540 on a multiscan spectrophotometer. TD50 values were calculated using the formula: [formula] to give interpolative values between two dilutions.

[4] = Mus musculus, Sarcoma-180, ip, 288 h, read-out: % Inhibition of tumor growth

Structure (SMILES): O=C1C[C@@H]2O[C@@H](CS(=O)(=O)Cc3ccccc3)CN12 (racemic) [compound 43, (3RS, 5SR)-3-Benzylsulfonylmethyl-4-oxa-1-azabicyclo[3,2,0]heptan-7-one]
- Mortality in 12 days ([1]; 12.5 mg/kg/day): 0/6
- inhibition in vivo at 12.5 mg/kg [1, 4]: 19.5%
- CC50 [2]: 0.5 µg/mL (≈ 1.78 µM)

Structure (SMILES): O=C(OC[C@H]1CN2C(=O)C[C@@H]2O1)c1ccc(F)cc1 (racemic) [compound 31, (3RS, 5SR)-3-(4-Fluorobenzoyloxymethyl)-4-oxa-1-azabicyclo [3,2,0]heptan-7-one]
- Mortality in 12 days ([1]; 12.5 mg/kg/day): 0/7
- Mortality in 12 days ([1]; 25 mg/kg/day): 0/7
- inhibition in vivo at 12.5 mg/kg [1, 4]: 53.2%
- inhibition in vivo at 25 mg/kg [1, 4]: 69.4%
- CC50 [2]: 0.4 µg/mL (≈ 1.51 µM)

Structure (SMILES): CCCCCC(=O)OC[C@H]1CN2C(=O)C[C@@H]2O1 (racemic) [compound 6, (3RS, 5SR)-3-Hexanoyloxymethyl-4-oxa-1-azabicyclo[3,2,0]heptan-7-one]
- CC50 [3]: 0.7 µg/mL (≈ 2.9 µM)
- Mortality in 12 days ([1]; 13 mg/kg/day): 0/6
- Mortality in 12 days ([1]; 25 mg/kg/day): 0/6
- Mortality in 12 days ([1]; 50 mg/kg/day): 0/6
- inhibition in vivo at 13 mg/kg [1, 4]: 36.4%
- inhibition in vivo at 25 mg/kg [1, 4]: 61.4%
- inhibition in vivo at 50 mg/kg [1, 4]: 78%
- CC50 [2]: 0.3 µg/mL (≈ 1.24 µM)

Structure (SMILES): O=COC[C@H]1CN2C(=O)C[C@@H]2O1 (racemic) [compound 3, (3RS, 5SR)-3-Formyloxymethyl-4-oxa-1-azabicyclo[3,2,0]heptan-7-one]
- CC50 [3]: 0.22 µg/mL (≈ 1.29 µM)
- Mortality in 12 days ([1]; 3.13 mg/kg/day): 0/7
- Mortality in 12 days ([1]; 6.25 mg/kg/day): 0/7
- inhibition in vivo at 3.13 mg/kg [1, 4]: 27.6%
- inhibition in vivo at 6.25 mg/kg [1, 4]: 55.3%
- CC50 [2]: 0.04 µg/mL (≈ 0.234 µM)

Structure (SMILES): O=C([O-])c1ccccc1C(=O)OC[C@H]1CN2C(=O)C[C@@H]2O1.[Na+] (racemic) [compound 25, Sodium (3RS, 5SR)-2-[(4-oxa-1-azabicyclo [3,2,0]heptan-7-one-3-yl)methyloxycarbonyl]benzoate]
- Mortality in 12 days ([1]; 100 mg/kg/day): 2/6
- inhibition in vivo at 100 mg/kg [1, 4]: 44.1%
- CC50 [2]: 1.5 µg/mL

Structure (SMILES): CCCCCCCC(=O)OC[C@H]1CN2C(=O)C[C@@H]2O1 (racemic) [compound 7, (3RS, 5SR)-3-(n-Octanoyloxymethyl)-4-oxa-1-azabicyclo[3,2,0] heptan-7-one]
- CC50 [3]: 0.34 µg/mL (≈ 1.26 µM)
- CC50 [2]: 0.1 µg/mL (≈ 0.371 µM)

Structure (SMILES): Nc1ccc(C(=O)OC[C@H]2CN3C(=O)C[C@@H]3O2)cc1 (racemic) [compound 34, (3RS, 5SR)-3-(4-Aminobenzoyloxymethyl)-4-oxa-1-azabicyclo [3,2,0]heptan-7-one]
- CC50 [2]: 0.4 µg/mL (≈ 1.53 µM)

Structure (SMILES): O=C1C[C@@H]2O[C@@H](CS(=O)(=O)c3ccccc3)CN12 (racemic) [compound 46, (3RS, 5SR)-3-Phenylsulfonylmethyl-4-oxa-1-azabicyclo[3,2,0]heptan-7-one]
- CC50 [2]: 2 µg/mL (≈ 7.48 µM)

Structure (SMILES): O=C1C[C@@H]2O[C@@H](CSCc3ccccc3)CN12 (racemic) [compound 41, (3RS,5SR)-3-Benzylthiomethyl-4-oxa-1-azabicyclo[3,2,0]heptan-7-one]
- Mortality in 12 days ([1]; 6.25 mg/kg/day): 0/6
- inhibition in vivo at 6.25 mg/kg [1, 4]: 17.1%
- CC50 [2]: 5 µg/mL (≈ 20.1 µM)

Structure (SMILES): C#CC(=O)OC[C@H]1CN2C(=O)C[C@@H]2O1 (racemic) [compound 16, (3RS, 5SR)-3-Propynoyloxymethyl-4-oxa-1-azabicyclo[3,2,0]heptan-7-one]
- CC50 [3]: 0.04 µg/mL (≈ 0.205 µM)
- Mortality in 12 days ([1]; 1.56 mg/kg/day): 0/7
- Mortality in 12 days ([1]; 3.13 mg/kg/day): 0/7
- inhibition in vivo at 1.56 mg/kg [1, 4]: 45.9%
- inhibition in vivo at 3.13 mg/kg [1, 4]: 53%
- CC50 [2]: 0.07 µg/mL (≈ 0.359 µM)

Structure (SMILES): CC(C)C(=O)OC[C@H]1CN2C(=O)C[C@@H]2O1 (racemic) [compound 9, (3RS, 5SR)-3-(2-Methylpropionyloxymethyl)-4-oxa-1-azabicyclo [3,2,0]heptan-7-one]
- CC50 [2]: 0.4 µg/mL (≈ 1.88 µM)

Structure (SMILES): O=C(O)CCC(=O)OC[C@H]1CN2C(=O)C[C@@H]2O1 (relative stereo) [compound 26]
- CC50 [2]: 9.8 µg/mL (≈ 40.3 µM)

Structure (SMILES): O=C(/C=C\C(=O)OC[C@H]1CN2C(=O)C[C@@H]2O1)OC[C@H]1CN2C(=O)C[C@@H]2O1 (relative stereo) [compound 30, Bis [(3RS, 5SR)-(4-oxa-1-azabicyclo[3,2,0]heptan-7-one-3-yl)-methyl]maleate]
- Mortality in 12 days ([1]; 12.5 mg/kg/day): 0/6
- Mortality in 12 days ([1]; 25 mg/kg/day): 0/6
- inhibition in vivo at 12.5 mg/kg [1, 4]: 34%
- inhibition in vivo at 25 mg/kg [1, 4]: 76.9%
- CC50 [2]: 0.05 µg/mL (≈ 0.136 µM)
